Experimental data: patent US9617271B2, “Triazolo compounds” (Hoffmann-La Roche Inc., priority 2012, dated 2017)

Target: human PDE10A (Homo sapiens (Human), UniProt Q9Y233)
Experiment: human PDE10A full length assay ([3H]-cGMP SPA)
Assay type: biochemical
Conditions: human PDE10A full length enzyme, 50 nM cGMP + 50 nM [3H]-cGMP, 20 minutes at room temperature; read-out: PDE10A inhibition IC50
Procedure: The human PDE10A full length assay was performed in 96-well micro titer plates. The reaction mixture of 50 μl contained 20 mM HEPES pH=7.5/10 mM MgCl2/0.05 mg/ml BSA (Sigma cat. #A-7906), 50 nM cGMP (Sigma, cat. #G6129) and 50 nM [3H]-cGMP (GE Healthcare, cat. #TRK392 S.A. 13.2 Ci/mmol), 3.75 ng/well PDE10A enzyme (Enzo Life Science, Lausen, Switzerland cat #SE-534) with or without a specific test compound. A range of concentrations of the potential inhibitor was used to generate data for calculating the concentration of inhibitor resulting in 50% of the effect (e.g. IC50, the concentration of the competitor inhibiting PDE10A activity by 50%). Non-specific activity was tested without the enzyme. The reaction was initiated by the addition of the substrate solution (cGMP and [3H]-cGMP) and allowed to progress for 20 minutes at room temperature. The reaction was terminated by adding 25 μl of YSi-SPA scintillation beads (GE Healthcare, cat. #RPNQ0150) in 18 mM zinc sulphate solution (stop reagent). After 1 h under shaking, the plate was centrifuged one minute at 170 g to allow beads to settle. Afterwards, radioactive counts were measured on a Perkin Elmer TopCount Scintillation plate reader.

Sequence of human PDE10A (Q9Y233 other isoform, or with tags, fused parts or gaps): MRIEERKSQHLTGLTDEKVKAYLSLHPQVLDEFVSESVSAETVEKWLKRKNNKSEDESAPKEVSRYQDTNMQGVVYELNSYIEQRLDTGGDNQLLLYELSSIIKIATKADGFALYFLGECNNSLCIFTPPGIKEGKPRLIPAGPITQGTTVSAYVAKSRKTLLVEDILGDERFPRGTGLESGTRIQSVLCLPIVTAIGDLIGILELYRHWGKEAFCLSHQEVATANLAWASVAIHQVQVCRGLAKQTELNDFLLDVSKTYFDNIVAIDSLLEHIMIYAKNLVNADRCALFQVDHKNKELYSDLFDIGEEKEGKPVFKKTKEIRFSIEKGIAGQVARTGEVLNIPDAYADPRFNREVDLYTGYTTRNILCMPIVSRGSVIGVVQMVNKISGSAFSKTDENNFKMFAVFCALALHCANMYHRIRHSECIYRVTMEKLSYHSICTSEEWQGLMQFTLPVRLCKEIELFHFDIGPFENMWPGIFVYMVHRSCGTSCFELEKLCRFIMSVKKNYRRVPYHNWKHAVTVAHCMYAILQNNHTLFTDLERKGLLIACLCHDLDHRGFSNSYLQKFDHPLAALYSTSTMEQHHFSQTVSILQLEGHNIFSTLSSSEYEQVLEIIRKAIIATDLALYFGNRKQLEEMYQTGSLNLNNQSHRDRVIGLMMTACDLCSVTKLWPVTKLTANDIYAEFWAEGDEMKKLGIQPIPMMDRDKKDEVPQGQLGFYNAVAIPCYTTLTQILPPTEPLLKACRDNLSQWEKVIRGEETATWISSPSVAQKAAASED

Compound | IC50 [nM]
Cc1c(C(F)(F)F)nc2ccc(CCc3nc(N4CCCC4)nn3C)nn12 [Example 1, 3-Methyl-6-(2-(1-methyl-3-(pyrrolidin-1-yl)-1H-1,2,4-triazol-5-yl)ethyl)-2-(trifluoro-methyl)imidazo[1,2-b]pyridazine] | 12
Cc1nc2ccc(CCc3nc(N4CCCC4)nn3C)nn2c1C [Example 2, 2,3-Dimethyl-6-(2-(1-methyl-3-(pyrrolidin-1-yl)-1H-1,2,4-triazol-5-yl)ethyl)-imidazo[1,2-b]pyridazine] | 11
Cc1c(C(F)(F)F)nc2ccc(C#Cc3nc(N4CCCC4)n(C)n3)nn12 [Example 4, 3-Methyl-6-((1-methyl-5-(pyrrolidin-1-yl)-1H-1,2,4-triazol-3-yl)ethynyl)-2-(trifluoromethyl)imidazo[1,2-b]pyridazine] | 4
Cc1c(C#N)nc2ccc(CCc3nc(N4CCCC4)nn3C)nn12 [Example 5, 3-Methyl-6-[2-(2-methyl-5-pyrrolidin-1-yl-2H-[1,2,4]triazol-3-yl)-ethyl]-imidazo[1,2-b]pyridazine-2-carbonitrile] | 21
Cc1c(C(F)F)nc2ccc(C#Cc3nc(N4CCCC4)nn3C)nn12 [Example 7, 2-(Difluoromethyl)-3-methyl-6-((1-methyl-3-(pyrrolidin-1-yl)-1H-1,2,4-triazol-5-yl)ethynyl)imidazo[1,2-b]pyridazine] | 5
COc1cc(/C=C/c2nc(N3CCCC3)nn2C)nn2c(C)c(C(F)(F)F)nc12 [Example 9, (E)-8-methoxy-3-methyl-6-(2-(1-methyl-3-(pyrrolidin-1-yl)-1H-1,2,4-triazol-5-yl)vinyl)-2-(trifluoromethyl)imidazo[1,2-b]pyridazine] | 1
COc1cc(CCc2nc(N3CCCC3)nn2C)nn2c(C)c(C)nc12 [Example 12, 8-Methoxy-2,3-dimethyl-6-(2-(1-methyl-3-(pyrrolidin-1-yl)-1H-1,2,4-triazol-5-yl)ethyl)imidazo[1,2-b]pyridazine] | 3
COc1nc(CCc2nc(N3CCCC3)nn2C)nn2c(C)c(C)nc12 [Example 13, 4-Methoxy-6,7-dimethyl-2-(2-(1-methyl-3-(pyrrolidin-1-yl)-1H-1,2,4-triazol-5-yl)ethyl)imidazo[1,2-f][1,2,4]triazine] | 2
Cn1nc(N2CCCC2)nc1CCc1ccc2nc3c(n2n1)CCC3 [Example 14, 5-[2-(2-Methyl-5-pyrrolidin-1-yl-2H-[1,2,4]triazol-3-yl)-ethyl]-2,3-dihydro-1H-3b,4,8-triaza-cyclopenta[a]indene] | 41
Cc1cc2nc(C)c(C)n2nc1C#Cc1nc(N2CCCC2)nn1C [Example 17, 2,3,7-Trimethyl-6-((1-methyl-3-(pyrrolidin-1-yl)-1H-1,2,4-triazol-5-yl)ethynyl)imidazo[1,2-b]pyridazine] | 1
Cc1nc2c(Cl)nc(CCc3nc(N4CCCC4)n(C)n3)nn2c1C [Example 20, 4-Chloro-6,7-dimethyl-2-(2-(1-methyl-5-(pyrrolidin-1-yl)-1H-1,2,4-triazol-3-yl)ethyl)-imidazo[1,2-f][1,2,4]triazine] | 11
Cc1nc2ccc(CCc3nc(N4CCCC4)nn3C)nn2c1CO [Example 21, (2-Methyl-6-(2-(1-methyl-3-(pyrrolidin-1-yl)-1H-1,2,4-triazol-5-yl)ethyl)imidazo[1,2-b]-pyridazin-3-yl)methanol] | 194
Cc1nc2c3c(c(CCc4nc(N5CCCC5)nn4C)nn2c1C)CCCC3 [Example 24, 2,3-Dimethyl-6-(2-(1-methyl-3-(pyrrolidin-1-yl)-1H-1,2,4-triazol-5-yl)ethyl)-7,8,9,10-tetrahydroimidazo[2,1-a]phthalazine] | 6
Cc1nc2c(OC(C)C)cc(C#Cc3nc(N4CCCC4)nn3C)nn2c1C [Example 25, 8-Isopropoxy-2,3-dimethyl-6-((1-methyl-3-(pyrrolidin-1-yl)-1H-1,2,4-triazol-5-yl)ethynyl)imidazo[1,2-b]pyridazine] | 1
Cc1nc2c(OC(C)C)cc(/C=C/c3nc(N4CCCC4)nn3C)nn2c1C [Example 26, (E)-8-Isopropoxy-2,3-dimethyl-6-(2-(1-methyl-3-(pyrrolidin-1-yl)-1H-1,2,4-triazol-5-yl)vinyl)imidazo[1,2-b]pyridazine] | 0.493
Cc1nc2ccc(SCc3nc(N4CCCC4)nn3C)nn2c1C [Example 28, 2,3-Dimethyl-6-((1-methyl-3-(pyrrolidin-1-yl)-1H-1,2,4-triazol-5-yl)methylthio)-imidazo[1,2-b]pyridazine] | 568
Cc1nc2ccc(OCc3nc(N4CCCC4)nn3C)nn2c1C [Example 30, 2,3-Dimethyl-6-((1-methyl-3-(pyrrolidin-1-yl)-1H-1,2,4-triazol-5-yl)methoxy)imidazo[1,2-b]pyridazine] | 98
Cc1nc2c(NC(C)C)nc(CCc3nc(N4CCCC4)nn3C)nn2c1C [Example 31, N-Isopropyl-6,7-dimethyl-2-(2-(1-methyl-3-(pyrrolidin-1-yl)-1H-1,2,4-triazol-5-yl)ethyl)imidazo[1,2-f][1,2,4]triazin-4-amine] | 3

Second part, the molecule after the results:

IC50 [nM] | Compound
5 | Cc1c(C#N)nc2ccc(/C=C/c3nc(N4CCCC4)nn3C)nn12 [Example 3, 3-Methyl-6-[(E)-2-(2-methyl-5-pyrrolidin-1-yl-2H-[1,2,4]triazol-3-yl)vinyl]-imidazo[1,2-b]pyridazine-2-carbonitrile]
19 | Cc1c(C(F)(F)F)nc2ccc(CCc3nc(N4CCCC4)n(C)n3)nn12 [Example 6, 3-Methyl-6-(2-(1-methyl-5-(pyrrolidin-1-yl)-1H-1,2,4-triazol-3-yl)ethyl)-2-(trifluoromethyl)imidazo[1,2-b]pyridazine]
8 | Cc1c(C(F)F)nc2ccc(CCc3nc(N4CCCC4)nn3C)nn12 [Example 8, 2-(Difluoromethyl)-3-methyl-6-(2-(1-methyl-3-(pyrrolidin-1-yl)-1H-1,2,4-triazol-5-yl)ethyl)imidazo[1,2-b]pyridazine]
2 | COc1cc(CCc2nc(N3CCCC3)nn2C)nn2c(C)c(C(F)(F)F)nc12 [Example 10, 8-Methoxy-3-methyl-6-(2-(1-methyl-3-(pyrrolidin-1-yl)-1H-1,2,4-triazol-5-yl)ethyl)-2-(trifluoromethyl)imidazo[1,2-b]pyridazine]
225 | Cc1nc2c(O)nc(CCc3nc(N4CCCC4)nn3C)nn2c1C [Example 11, 6,7-Dimethyl-2-(2-(1-methyl-3-(pyrrolidin-1-yl)-1H-1,2,4-triazol-5-yl)ethyl)imidazo[1,2-f][1,2,4]triazin-4-ol]
4 | Cc1nc2c(Cl)nc(CCc3nc(N4CCCC4)nn3C)nn2c1C [Example 15, 4-Chloro-6,7-dimethyl-2-(2-(1-methyl-3-(pyrrolidin-1-yl)-1H-1,2,4-triazol-5-yl)ethyl)imidazo[1,2-f][1,2,4]triazine]
2 | Cc1nc2c(C)cc(CCc3nc(N4CCCC4)nn3C)nn2c1C [Example 16, 2,3,8-trimethyl-6-(2-(1-methyl-3-(pyrrolidin-1-yl)-1H-1,2,4-triazol-5-yl)ethyl)-imidazo[1,2-b]pyridazine]
195 | Cc1cc2nc(C)c(C)n2nc1CCc1nc(N2CCCC2)nn1C [Example 18, 2,3,7-Trimethyl-6-(2-(1-methyl-3-(pyrrolidin-1-yl)-1H-1,2,4-triazol-5-yl)ethyl)imidazo[1,2-b]pyridazine]
5 | Cc1nc2c(N3CCCC3)cc(CCc3nc(N4CCCC4)nn3C)nn2c1C [Example 19, 2,3-Dimethyl-6-(2-(1-methyl-3-(pyrrolidin-1-yl)-1H-1,2,4-triazol-5-yl)ethyl)-8-(pyrro-lidin-1-yl)imidazo[1,2-b]pyridazine]
2 | Cc1nc2c(N(C)C)nc(CCc3nc(N4CCCC4)nn3C)nn2c1C [Example 22, N,N,6,7-Tetramethyl-2-(2-(1-methyl-3-(pyrrolidin-1-yl)-1H-1,2,4-triazol-5-yl)ethyl)-imidazo[1,2-f][1,2,4]triazin-4-amine]
290 | Cc1c(C(F)(F)F)nc2ccc(OCc3nc(N4CCCC4)nn3C)nn12 [Example 23, 3-Methyl-6-((1-methyl-3-(pyrrolidin-1-yl)-1H-1,2,4-triazol-5-yl)methoxy)-2-(trifluoro-methyl)imidazo[1,2-b]pyridazine]
3 | Cc1nc2c(OC(C)C)cc(CCc3nc(N4CCCC4)nn3C)nn2c1C [Example 27, 8-Isopropoxy-2,3-dimethyl-6-(2-(1-methyl-3-(pyrrolidin-1-yl)-1H-1,2,4-triazol-5-yl)ethyl)imidazo[1,2-b]pyridazine]
5 | Cc1nc2c(S(C)(=O)=O)cc(C#Cc3nc(N4CCCC4)nn3C)nn2c1C [Example 29, 2,3-Dimethyl-6-((1-methyl-3-(pyrrolidin-1-yl)-1H-1,2,4-triazol-5-yl)ethynyl)-8-(methylsulfonyl)imidazo[1,2-b]pyridazine]
41 | Cc1nc2c(S(C)(=O)=O)cc(CCc3nc(N4CCCC4)nn3C)nn2c1C [Example 33, 2,3-Dimethyl-6-(2-(1-methyl-3-(pyrrolidin-1-yl)-1H-1,2,4-triazol-5-yl)ethyl)-8-(methyl-sulfonyl)imidazo[1,2-b]pyridazine]
